Data set [1] has as its system Clearfield sunflower variety A. The data set is described as follows: Greenhouse spray injury rating (Example 5). The format is in vivo. The following applies: variety A, 14 DAT. An excerpt:
(§1) Methods: Sunflower lines S4897, Clearfield® sunflower varieties A, B, C and a conventional non-Clearfield variety were sprayed with three rates of imazamox (Raptor™), 100, 200 and 300 gm ai/ha plus 0.5% Sun It II and two rates of imazapyr (Arsenal™) 160 and 360 gm ai/ha plus 0.5% Sun It II when the plants were at the two to three leaf stage. Ratings were taken at 14 days after application (DAT) for injury. Injury was rated on a scale from 0 to 9 where […] to 9=dead plant. Twelve plants were sprayed per herbicide/rate treatment. Statistical analysis was conducted with STATGRAPHICS Plus 5.0 by using ANOVA and LSD procedures.
(§2) Results: After plants were sprayed, it was realized that a height difference between S4897 and other sunflower varieties would have impacted the actual herbicide dose that was delivered. The spray boom height had been calibrated against S4897 and since the other varieties were taller and closer to the boom they would have received a greater dose of herbicide. Rates were recalibrated for the other varieties to determine the approximate dose they would have received. Assessments were made as presented in Table 2 since it was not possible to make a direct rate comparison due to the effect of the height. For example injury scores were compare for S4897 treated imazamox rate 100 gm ai/ha to the other varieties treated at 75 gm ai/ha. The treatment dose of 300 gm ai/ha for line S4897 was equivalent to the treatment of 200 gm ai/ha for the other varieties, which approximately was 300 gm ai/ha.

Data set [2] relates to Clearfield sunflower variety B. The data set is described as follows: Greenhouse spray injury rating (Example 5). The format is in vivo. The following applies: variety B, 14 DAT.
Description: as §1, §2

Data set [3] deals with Clearfield sunflower variety C. The data set is described as follows: Greenhouse spray injury rating (Example 5). Format: in vivo. The following applies: variety C, 14 DAT.
Description: as §1, §2

A further data set deals with Sunflower line S4897. The data set is described as follows: Greenhouse spray injury rating (Example 5). The format is in vivo. As to conditions: 14 DAT.
Description: as §1, §2

The test system of data set [4] is conventional non-Clearfield variety. The data set is described as follows: Greenhouse spray injury rating (Example 5). The format is in vivo. The following applies: non-Clearfield, 14 DAT.
Description: as §1, §2

Data set [5] has as its system AHAS of S4897 sunflower plants (Ala107-to-Thr). The data set is described as follows: AHAS activity inhibition (Example 5). The following applies: higher concentration of imazamox; compared to a Clearfield sunflower and conventional non Clearfield variety (FIG. 7). The format is biochemical, Helianthus annuus. The procedure:
AHAS activity analysis was also conducted by selecting actively growing young leaves from plants that were not sprayed with herbicide at approximately four weeks after planting.

The subject of another data set is S4897 sunflower plants. The data set is described as follows: Greenhouse spray treatment with imazamox (FIG. 3, FIG. 4). Format: in vivo, Helianthus annuus. The following applies: imazamox 100 or 200 g ai/ha, evaluated 17 days after application. As to the method:
(§3) The S4897 and IMISUN-1 sunflower plants were spray-treated with imazamox at rate of 200 g ai/ha. […] The photograph was taken a few days after the plants were spray treated.
(§4) FIG. 4 is graphical illustration of herbicide injury in a greenhouse test following the spray treatment of IMISUN-1, wild-type, and S4897 sunflower plants with imazamox at either 100 (light columns) or 200 g ai/ ha (dark columns). […] Herbicide injury was evaluated 17 days after the imazamox application.

The test system of data set [6] is wild-type sunflower plants. Described as above. The format is in vivo, Helianthus annuus. The following applies: imazamox at either 100 or 200 g ai/ha. The procedure: as §3, §4
The next data set has as its system S4897 plants. Also on record: species or system Helianthus annuus. As to conditions: in vivo. As to the method:
In field trials in Argentina, S4897 plants were tested for resistance to imazapic. […] This trial had single row plots and was treated on a windy day, so the actual herbicide dose reaching the plants was likely less than was applied.

Take `COCc1cnc(C2=NC(C)(C(C)C)C(=O)N2)c(C(=O)O)c1` (stereo not shown) [imazamox]: the “Injury (scale 0 to 9)” value in data set [1] (imazamox 75 gm ai/ha (100/75)) was 4.3 c; in data set [1] (imazamox 150 gm ai/ha (column 200/150)), “significantly in juried and had stopped growing”; in data set [1] (imazamox 150 gm ai/ha (column 200/150), listed as Imazamox), 4.6 c; in [1] (imazamox 300 gm ai/ha), 6.5 days; in data set [2] (imazamox 75 gm ai/ha (100/75)) it was 1.9 b; in data set [2] (imazamox 150 gm ai/ha), 4.8 c. For the same compound, the “Injury (scale 0 to 9)” value in [2] (imazamox 300 gm ai/ha) is 5.3 c; in data set [3] (imazamox 75 gm ai/ha (100/75)), 1.8 b; in data set [3] (imazamox 150 gm ai/ha), 2.9 b; in [3] (imazamox 300 gm ai/ha), 4.6 b; in the data set on Sunflower line S4897 (imazamox 100 gm ai/ha + 0.5% Sun It II, 0 no injury, 9 dead plant), 0.5 a; with Sunflower line S4897 (imazamox 200 gm ai/ha), “little to no injury”. Besides, the “Injury (scale 0 to 9)” value is 0.8 a in the data set with Sunflower line S4897 (imazamox 200 gm ai/ha, listed as Imazamox); “very little injury” with Sunflower line S4897 (imazamox 300 gm ai/ha); 0.8 a with Sunflower line S4897 (imazamox 300 gm ai/ha, listed as Imazamox); 7.2 days in data set [4] (imazamox 75 gm ai/ha (100/75)); 8.2 days in data set [4] (imazamox 150 gm ai/ha); 8.7 e in data set [4] (imazamox 300 gm ai/ha). The “inhibition of AHAS activity” value in data set [5] was “less inhibition”. Further, the “herbicide injury (resistance or tolerance vs IMISUN-1 and wild-type)” value in the data set on S4897 sunflower plants is “significantly greater resistance or tolerance”. Also, in data set [6], the “survival after spray treatment” value is recorded as “did not survive”.

In the case of `Cc1cnc(C2=NC(=O)C(C)(C(C)C)N2)c(C(=O)O)c1` (stereo not shown) [imazapic], the “resistance to imazapic compared with IMISUN-1” value in the data set on S4897 plants is “clearly superior”.
